Experiment [1] concerns mouse macrophage RAW264.7 cells. The experiment can be described thus: Western blotting of caspase-3 and cleaved caspase-3. In kind it is cell-based. Particulars: DHMBA 10 μM, 3 days. As to the method: FIG. 4 is an explanatory diagram describing that the marine factor 3,5-dihydroxy-4-methoxy benzyl alcohol (DHMBA) stimulates cell death in mouse macrophage RAW264.7 cells. RAW264.7 cells (1×10^5 cells/ml/well in a 24-well plate) were cultured in DMEM containing 10% FBS, 1% P/S, and 1% fungizone for 3 days until they reached subconfluence. The cells were cultured for another 24 hours (FIG. 4A) or 48 hours (FIG. 4B) in the control group (1% ethanol; 0 μM DHMBA as final concentration) and in the DHMBA-treated group (0.1, 1, 10, 100, or 1000 μM). […] After the culture, the number of cells attached to the dish was counted. […]
RAW264.7 cells (1×10^6 cells/10 ml of 100 mm dish) were cultured for 3 days in 10% FBS, 1% P/S (1% ethanol), or in the DHMBA-treated group (10 μM). […] Protein concentrations in the supernatants were measured using Bio-Rad Protein Assay Dye (Bio-Rad Laboratories, Inc., Hercules, CA, USA) with bovine serum albumin as a standard. […] After incubation, the membranes were further incubated with horseradish peroxidase-conjugated secondary antibodies (Santa Cruz Biotechnology Inc., cat. no. sc-2005 (mouse) or sc-2305 (rabbit); dilution 1:2000) for 60 min at room temperature, and protein bands were detected using chemiluminescence substrates (cat. no. 34577, Thermo Fisher Scientific Inc., Rockford, IL, USA) on X-ray films. […]
On the technique in general: In western blotting, separated proteins are transferred to a membrane and probed.

The test system is the same in experiment [2]. The experiment is described as follows: Measurement of cytokine production (ELISA). In kind it is cell-based. The conditions noted are these: 5 hours. The protocol:
RAW264.7 cells (1×10^5/ml per well in a 24-well plate) were cultured for 3 days in a DMEM culture medium without DHMBA until they reached subconfluence. After that, the cell culture was continued for another 5 hours in the control group (1% ethanol; DHMBA 0 μM as final concentration) and the DHMBA-treated group (0.1, 1, 10, 100, or 1000 μM) with or without LPS (100 ng/ml) in the cell culture medium. After the culture, the culture medium was collected, and the cytokine concentrations of TNF-α (FIG. 7A), IL-6 (FIG. 7B), […] (FIG. 7C), and PGE2 (FIG. 7D) in the culture medium were measured using an ELISA Kit. Data are presented as the mean±SD from a total of 8 wells in two plates using different cell preparations. *: Significant difference (P<0.001) versus the controls without DHMBA and LPS (white bars). #: Significant difference (P<0.001) versus the controls with LPS but without DHMBA. Statistical analysis was performed using 1-way ANOVA with Tukey-Kramer post-test.
RAW264.7 cells (1×10^5/ml per well) were cultured in a DMEM culture medium containing 10% FBS and 1% P/S using a 24-well plate for 3 days until they reached subconfluence. The cells were then cultured for another 5 hours in the control group (1% ethanol; DHMBA 0 μM as final concentration) and in the DHMBA-treated group (0.1, 1, 10, 100, or 1000 μM) with or without LPS (100 ng/ml). After the culture, the culture media were collected to measure cytokines. Then, the cells were detached from each culture dish to measure the cell number by the method described in “Cell count”. The concentrations of TNF-α, IL-6, IL-⊕, and PGE2 in the culture medium were measured using ELISA kits. For the measurement, kits for TNF-α (cat. no. BM), KHC301) and IL-16 (cat. no. BMS6002) were obtained from ThermoFisher Scientific (Waltham, MA, USA), and kits for IL-6 (cat. no. 583371) and PGE2 (cat. no. 514010) were purchased from Cayman Chemical (Ann Arbor, MI, USA). The amount of each cytokine produced was expressed as pictograms (pg) secreted into the culture medium (ml).
In general terms: In an ELISA, binding on a coated surface is turned into a signal by an enzyme label.

Setting [3] is: LPS 100 ng/ml, DHMBA 1, 10, 100 or 1000 μM.

`COc1c(O)cc(CO)cc1O` [DHMBA, 3,5-dihydroxy-4-methoxybenzyl alcohol]: in experiment [1], the “level of caspase-3” value was “increased” and the “level of cleaved caspase-3” value is “increased”. Further, in experiment [2] (setting [3]), the “LPS-increased production of IL-1β” value is on record as “suppressed”, the “LPS-increased production of IL-6” value is “suppressed”, the “LPS-increased production of PGE2” value was “suppressed” and the “LPS-increased production of TNF-α” value is “suppressed”. Moreover, the “production of IL-6” value in experiment [2] (absence of LPS, DHMBA 100 or 1000 μM) is listed as “suppressed”.
